Results: US20100222322A1, “Non-Nucleoside Reverse Transcriptase Inhibitors” (MERCK & CO., INC., priority 2005, published 2010)
Like-named read-outs stand apart in the source and are kept apart here.

Legend:
[1] = tested on: HIV replication in T-lymphoid cells; assay: Spread assay: inhibition of acute HIV infection of T-lymphoid cells; format: cell-based; details: read-out: IC95, spread assay (inhibition of HIV replication)
Description: An assay for the inhibition of acute HIV infection of T-lymphoid cells (alternatively referred to herein as the “spread assay”) was conducted in accordance with Vacca, J. P. et al., Proc. Natl. Acad. Sci. USA 1994, 91: 4096. […] The compounds of Examples 26, 29, 30, 33-35 and 62 were tested in the spread assay up to 10 micromolar, but specific IC95 values were not obtained; i.e., the IC95 values were greater than 10 micromolar. The compounds of Examples 47 and 61 were not tested.

[2] = biological target: T1, mutant HIV reverse transcriptase with the Y181C mutation (Human immunodeficiency virus type 1 group M subtype B, UniProt P04585, Y768C); assay: Analogous RT inhibition assay, Y181C mutant; format: biochemical
T1 construct: mutations that occur in the reverse transcriptase segment of the pol gene; made in house
Description: (§1) 100 μL reaction mixtures were initiated with a combination of primer-template substrate (10 nM final concentration) and dNTPs (0.6 μM dNTPs, 0.75 μM [^3H]-dGTP). The heterodimeric nucleic acid substrate was generated by annealing the DNA primer pD500 (described in Shaw-Reid et al., J. Biol. Chem., 278: 2777-2780; obtained from Integrated DNA Technologies) to t500, a 500 nucleotide RNA template created by in vitro transcription (see Shaw-Reid et al., J. Biol. Chem., 278: 2777-2780). After 1 hour incubation at 37° C., reactions were quenched by 10 μL streptavidin scintillation proximity assay beads (10 mg/mL, from Amersham Biosciences) in 0.5 M EDTA, pH 8. Microtiter plates were incubated an additional 10 minutes at 37° C. prior to quantification via Topcount (Packard).
(§2) Analogous assays were conducted substituting mutant HIV strains to determine the […] inhibition of compounds of the present invention against mutant HIV reverse transcriptase. In one strain the reverse transcriptase has the Y181C mutation and in the other strain the reverse transcriptase has the K103N mutation. The mutations were generated with the […] site-directed mutagenesis kit (Stratagene). […] The compounds set forth in the other Examples were not tested in the Y181C assay. […] The compounds set forth in the other Examples were not tested in the K103N assay.

[3] = biological target: T2, mutant HIV reverse transcriptase with the K103N mutation (Human immunodeficiency virus type 1 group M subtype B, UniProt P04585, K690N); assay: Analogous RT inhibition assay, K103N mutant; format: biochemical
T2 construct: mutations that occur in the reverse transcriptase segment of the pol gene; made in house
Description: as §1, §2

[4] = Human immunodeficiency virus 1, acute HIV infection of T-lymphoid cells, tested up to 10 micromolar
[5] = RT with Y181C mutation, tested up to 20 micromolar, read-out: IC50, Y181C mutant assay
[6] = RT with K103N mutation, tested up to 20 micromolar, read-out: IC50, K103N mutant assay
[7] = Human immunodeficiency virus 1, T-lymphoid

## O=C(NCc1ccncc1)c1[nH]c2ccc(Br)cc2c1S(=O)(=O)N1CCCC1 [Example 64, 5-bromo-N-(pyridin-4-ylmethyl)-3-(pyrrolidin-1-ylsulfonyl)-1H-indole-2-carboxamide]
[1]; [4]
  IC95: < 1000 nM
[2]
  IC50: < 1000 nM
[3]
  IC50: < 1000 nM

## N#Cc1ccc2[nH]c(C(N)=O)c(S(=O)(=O)N3CCCC3)c2c1 [Example 68, 5-Cyano-3-(pyrrolidin-1-ylsulfonyl)-1H-indole-2-carboxamide]
[1]; [4]
  IC95: < 1000 nM
[2]; [5]
  IC50: > 20000 nM
[3]; [6]
  IC50: 1000 to 20000 nM

## O=C(NCc1c(F)cccc1Cl)c1[nH]c2ccc(Br)cc2c1S(=O)(=O)N1CCCC1 [Example 48, 5-bromo-N-(2-chloro-6-fluorobenzyl)-3-(pyrrolidin-1-ylsulfonyl)-1H-indole-2-carboxamide]
[1]; [4]
  IC95: < 1000 nM
[2]
  IC50: < 1000 nM
[3]
  IC50: < 1000 nM

## NC(=O)c1[nH]c2ccc(Cl)cc2c1S(=O)(=O)N1CCC(F)(F)C1 [Example 39, 5-chloro-3-[(3,3-difluoropyrrolidin-1-yl)sulfonyl]-1H-indole-2-carboxamide]
[1]; [4]
  IC95: < 1000 nM
[2]; [5]
  IC50: < 1000 nM

## COC[C@@H]1CCCN1S(=O)(=O)c1c(C(N)=O)[nH]c2ccc(Br)cc12 [Example 15, 5-bromo-3-{[(2S)-2-(methoxymethyl)pyrrolidin-1-yl]sulfonyl}-1H-indole-2-carboxamide]
[1]; [4]
  IC95: < 1000 nM
[2]; [5]
  IC50: < 1000 nM
[3]; [6]
  IC50: 1000 to 20000 nM

## NC(=O)c1[nH]c2ccc(Br)cc2c1S(=O)(=O)NC1CC1 [Example 11, 5-bromo-3-[(cyclopropylamino)sulfonyl]-1H-indole-2-carboxamide]
[1]; [4]
  IC95: < 1000 nM
[2]
  IC50: 1000 to 20000 nM
[3]
  IC50: > 20000 nM

## NC(=O)c1[nH]c2ccc(Br)cc2c1S(=O)(=O)N1CCCC(F)(F)C1 [Example 21, 5-bromo-3-[(3,3-difluoropiperidin-1-yl)sulfonyl]-1H-indole-2-carboxamide]
[1]; [4]
  IC95: < 1000 nM
[2]
  IC50: < 1000 nM
[3]
  IC50: > 20000 nM

## O=C(NCCO)c1[nH]c2ccc(Br)cc2c1S(=O)(=O)N1CCCCC1 [Example 31, 5-bromo-N-(2-hydroxyethyl)-3-(piperidin-1-ylsulfonyl)-1H-indole-2-carboxamide]
[1]; [7]
  IC95: < 1000 nM
[2]
  IC50: < 1000 nM
[3]
  IC50: > 20000 nM

## O=C(NCc1ccccc1OC(F)F)c1[nH]c2ccc(Br)cc2c1S(=O)(=O)N1CCCC1 [Example 53, 5-bromo-N-[2-(difluoromethoxy)benzyl]-3-(pyrrolidin-1-ylsulfonyl)-1H-indole-2-carboxamide]
[1]; [4]
  IC95: < 1000 nM
[2]
  IC50: < 1000 nM
[3]
  IC50: < 1000 nM

## NC(=O)c1[nH]c2ccc(Br)cc2c1S(=O)(=O)N1CCC[C@H]1C(F)(F)F [Example 19, 5-bromo-3-{[(2S)-2-(trifluoromethyl)pyrrolidin-1-yl]sulfonyl}-1H-indole-2-carboxamide]
[1]; [4]
  IC95: < 1000 nM
[2]
  IC50: 1000 to 20000 nM
[3]; [6]
  IC50: > 20000 nM

## O=C(NCc1nccs1)c1[nH]c2ccc(Br)cc2c1S(=O)(=O)N1CCCC1 [Example 47, 5-Bromo-3-(pyrrolidin-1-ylsulfonyl)-N-(1,3-thiazol-2-ylmethyl)-1H-indole-2-carboxamide]
[2]; [5]
  IC50: < 1000 nM
[3]; [6]
  IC50: < 1000 nM

## O=C(NCCCn1ccnc1)c1[nH]c2ccc(Br)cc2c1S(=O)(=O)N1CCCC1 [Example 52, 5-bromo-N-[3-(1H-imidazol-1-yl)propyl]-3-(pyrrolidin-1-ylsulfonyl)-1H-indole-2-carboxamide]
[1]; [4]
  IC95: < 1000 nM

## O=C(NCCO)c1[nH]c2ccc(Br)cc2c1S(=O)(=O)NC1CCCC1 [Example 35, 5-bromo-3-[(cyclopentylamino)sulfonyl]-N-(2-hydroxyethyl)-1H-indole-2-carboxamide]
[1]; [4]
  IC95: > 10000 nM

## COCCNC(=O)c1[nH]c2ccc(Br)cc2c1S(=O)(=O)N1CCCC1 [Example 56, 5-bromo-N-(2-methoxyethyl)-3-(pyrrolidin-1-ylsulfonyl)-1H-indole-2-carboxamide]
[1]; [4]
  IC95: < 1000 nM

## CCOC(=O)c1[nH]c2ccc(Br)cc2c1S(=O)(=O)NC1CCCC1 [Example 29, ethyl 5-bromo-3-[(cyclopentylamino)sulfonyl]-1H-indole-2-carboxylate]
[1]; [7]
  IC95: > 10000 nM

## O=C(NCc1cscn1)c1[nH]c2ccc(Br)cc2c1S(=O)(=O)N1CCCC1 [Example 57, 5-bromo-3-(pyrrolidin-1-ylsulfonyl)-N-(1,3-thiazol-4-ylmethyl)-1H-indole-2-carboxamide]
[1]; [4]
  IC95: < 1000 nM

## NC(=O)c1[nH]c2ccc(Cl)cc2c1S(=O)(=O)N1CCC1 [Example 7, 3-(azetidin-1-ylsulfonyl)-5-chloro-1H-indole-2-carboxamide]
[1]; [4]
  IC95: < 1000 nM

## CN1CCC(CNC(=O)c2[nH]c3ccc(Br)cc3c2S(=O)(=O)N2CCCC2)C1 (stereo not shown) [Example 60, 5-bromo-N-[(1-methylpyrrolidin-3-yl)methyl]-3-(pyrrolidin-1-ylsulfonyl)-1H-indole-2-carboxamide]
[1]; [4]
  IC95: < 1000 nM

## COC(=O)c1[nH]c2ccc(Br)cc2c1S(=O)(=O)N1CCCC1 [Example 25, methyl 5-bromo-3-(pyrrolidin-1-ylsulfonyl)-1H-indole-2-carboxylate]
[1]; [4]
  IC95: < 1000 nM

## NC(=O)c1[nH]c2ccc(Br)cc2c1S(=O)(=O)N1CCC(F)CC1 [Example 45, 5-bromo-3-[(4-fluoropiperidin-1-yl)sulfonyl]-1H-indole-2-carboxamide]
[1]; [4]
  IC95: < 1000 nM

## CCOC(=O)c1[nH]c2ccc(Br)cc2c1S(=O)(=O)N1CCCC1C(F)(F)F (stereo not shown) [Example 30, ethyl 5-bromo-3-{[2-(trifluoromethyl)pyrrolidin-1-yl]sulfonyl}-1H-indole-2-carboxylate]
[1]; [7]
  IC95: > 10000 nM

## O=C(NCc1nc2cccnc2[nH]1)c1[nH]c2ccc(Br)cc2c1S(=O)(=O)N1CCCC1 [Example 63, 5-bromo-N-(3H-imidazo[4,5-b]pyridin-2-ylmethyl)-3-(pyrrolidin-1-ylsulfonyl)-1H-indole-2-carboxamide]
[1]; [4]
  IC95: < 1000 nM

## O=C(NCCO)c1[nH]c2ccc(Br)cc2c1S(=O)(=O)NC1CCCCC1 [Example 34, 5-bromo-3-[(cyclohexylamino)sulfonyl]-N-(2-hydroxyethyl)-1H-indole-2-carboxamide]
[1]; [4]
  IC95: > 10000 nM

## NC(=O)c1[nH]c2ccc(Br)cc2c1S(=O)(=O)N1CCC(F)(F)CC1 [Example 43, 5-bromo-3-[(4,4-difluoropiperidin-1-yl)sulfonyl]-1H-indole-2-carboxamide]
[1]; [4]
  IC95: < 1000 nM

## NC(=O)c1[nH]c2ccc(Br)cc2c1S(=O)(=O)N1CCC(F)(F)C1 [Example 42, 5-bromo-3-[(3,3-difluoropyrrolidin-1-yl)sulfonyl]-1H-indole-2-carboxamide]
[1]; [4]
  IC95: < 1000 nM

## O=C(NCc1ncc(-c2ccccc2)[nH]1)c1[nH]c2ccc(Br)cc2c1S(=O)(=O)N1CCCC1 [Example 62, 5-bromo-N-[(5-phenyl-1H-imidazol-2-yl)methyl]-3-(pyrrolidin-1-ylsulfonyl)-1H-indole-2-carboxamide]
[1]; [4]
  IC95: > 10000 nM

## COC(=O)c1[nH]c2ccc(Br)cc2c1S(=O)(=O)NC1CCCC1 [Example 26, methyl 5-bromo-3-[(cyclopentylamino)sulfonyl]-1H-indole-2-carboxylate]
[1]; [7]
  IC95: > 10000 nM

## O=C(NCc1cccnc1)c1[nH]c2ccc(Br)cc2c1S(=O)(=O)N1CCCC1 [Example 50, 5-bromo-N-(pyridin-3-ylmethyl)-3-(pyrrolidin-1-ylsulfonyl)-1H-indole-2-carboxamide]
[1]; [4]
  IC95: < 1000 nM

## COC(=O)c1[nH]c2ccc(Br)cc2c1S(=O)(=O)N1CCCCC1 [Example 24, methyl 5-bromo-3-(piperidin-1-ylsulfonyl)-1H-indole-2-carboxylate]
[1]; [4]
  IC95: < 1000 nM
